Test results published in US9133225B2, “Dual targeting anticancer agents” (priority 2013, dated 2015).

Legend:
MCF-7 cells = test: MTT cytotoxicity assay, MCF-7
Description: (§1) (a) Dulbecco's Modified Eagle Medium (DMEM), Dulbecco's phosphate buffered saline (DPBS), fetal bovine serum (FBS) and 0.25% trypsin/EDTA solutions were purchased from Cellgro (Manassas, Va.). Penicillin-streptomycin solutions were purchased from Mediatech (Manassas, Va.). (b) HeLa (CCL-2TM) cells, A549, A2870, A2870/CP70, MCF-7, PC-3, and MRC-5 cells were purchased from American Type Culture Collection (ATCC, Manassas, Va., USA). (c) HCT116 cells were kindly donated by Laura Trudel (MIT). HeLa, A549, MCF-7, and MRC-5 cells were cultured using DMEM supplemented with 10% FBS and 1% penicillin-streptomycin. A2870, A2870/CP70, and PC-3 cells were cultured in RPMI supplemented with 10% FBS and 1% penicillin-streptomycin. HCT116 cells were cultured in McCoy's supplemented with 10% FBS and 1% penicillin-streptomycin. All cell-culture experiments were performed in the aforementioned media in an incubator operating at 37° C. and in the presence of a humidified atmosphere containing 5.0% CO2. Cells were harvested using a 0.25% trypsin/EDTA solution.
(§2) The cytotoxicity of the compounds was assessed by means of the MTT assay (MTT=3-(4,5-dimethyl-2-thiazolyl)-2,5-diphenyl-2H-tetrazolium bromide). Typically, on day one, ˜1×10^3 cells were seeded into 96-well plates in 100 μL media per well. The last row of the plate was left empty as a control for background absorption. The cells were allowed to grow for 24 h in the incubator at 37° C. On day two, a series of drug dilutions in growth media were prepared immediately prior to cell treatment. The media in the wells of the 96 plates were replaced with 100 μL of growth media containing appropriate drug concentrations. The cells were treated for 48 h at 37° C. in the incubator. On day four, a stock solution of MTT (5 mg/mL in PBS buffer) was diluted with media so that, when 100 μL of the media was added to each well, 10 μL of MTT stock was applied. […] The optical density for each well at 550 nm was measured with a microplate reader.

Bcl-xL-Bax interactions = target: T1, Bcl-xL-Bax interactions (Homo sapiens, UniProt Q07817); test: Co-immunoprecipitation of Bcl-xL, probed for Bax; assay type: cell-based; details: A549 cells, respective IC50 values, 48 h
T1 construct: endogenous in cells; host or cells: A549
Method: (§3) α-TOS is known to disrupt Bcl-xL-Bax interactions, activate Bax, and thus mediate mitochondrial centered apoptotic cell death. Co-immunoprecipitation studies were carried out to determine whether the Pt(IV)-α-TOS conjugates could behave in a similar manner. […] Additional immunoblotting studies were carried to determine the effect of Pt(IV)(α-TOS)(OEt) treatment on transcription. […] Overall Pt(IV)(α-TOS)(OEt) was able to (1) downregulate Bcl-xL expression and (2) inhibit the interaction of Bcl-xL with Bax, a prerequisite for mitochondrial dysfunction. The former is inherent to cisplatin but not α-TOS, and the latter was inherent to α-TOS but not cisplatin.
A549 cells (5×10^5 cells) were incubated with test compound for 48 h at 37° C. […] The resultant cell lysate was treated with protein A-agarose bead slurry (50 μL) and centrifuged to remove proteins that bind non-specifically. Anti Bcl-XL antibody (Cell Signalling Technology) was added to the lysate and incubated for 2 h at room temperature. Protein A-agarose bead slurry (50 μL) was added and the mixture was incubated at 4° C. overnight. Centrifugation allowed separation of the immunocomplex, which was washed with cold RIPA buffer (3×500 μL). The immunocomplex was then suspended in SDS-PAGE loading buffer (50 μL) and incubated at 95° C. for 10 min. The solution containing the immunocomplex was isolated by centrifugation and then analysed for Bax content using the immunoblotting analysis protocol described above.

PC-3 cells = test: MTT cytotoxicity assay, PC-3
Description: as §1, §2

[1] = system: MRC-5 non-tumorigenic lung fibroblast cells; test: in vitro
Description: as §1
(§4) The cytotoxicity of the compounds was assessed by means of the MTT assay (MTT=3-(4,5-dimethyl-2-thiazolyl)-2,5-diphenyl-2H-tetrazolium bromide). Typically, on day one, ˜1×10^3 cells were seeded into 96-well plates in 100 μL media per well. The last row of the plate was left empty as a control for background absorption. The cells were allowed to grow for 24 h in the incubator at 37° C. On day two, a series of drug dilutions in growth media were prepared immediately prior to cell treatment. The media in the wells of the 96 plates were replaced with 100 μL of growth media containing appropriate drug concentrations. The cells were treated for 48 h at 37° C. in the incubator. On day four, a stock solution of MTT (5 mg/mL in PBS buffer) was diluted with media so that, when 100 μL of the media was added to each well, 10 μL of MTT stock was applied. The cells were incubated for 2 h and then all the media was replaced with 100 μL of DMSO to dissolve the purple MTT-formazan crystals. The optical density for each well at 550 nm was measured with a microplate reader.

Bcl-xL = test: Immunoblotting analysis of Bcl-xL expression; assay type: cell-based; details: A549 cells
Method: as §3
A549 cells (5×10^5 cells) were incubated with test compound for 48 h at 37° C. Cells were washed with PBS, scraped into SDS-PAGE loading buffer (64 mM Tris-HCl (pH6.8)/9.6% glycerol/2% SDS/5% β-mercaptoethanol/0.01% Bromophenol Blue) and incubated at 95° C. for 10 min. Whole cell lysates were resolved by 4-20% sodium dodecylsulphate polyacylamide gel electrophoresis (SDS-PAGE; 200 V for 1 h) followed by electro transfer to polyvinylidene difluoride membrane, PVDF (350 mA for 1 h). Membranes were blocked in 5% (w/v) non-fat milk in PBST (PBS/0.1% Tween 20) and incubated with the appropriate primary antibodies (Cell Signalling Technology and Santa Cruz). After incubation with horseradish peroxidase-conjugated secondary antibodies (Cell Signalling Technology), immune complexes were detected with the ECL detection reagent (BioRad) and analysed using an Alpha Innotech ChemiImager™ 5500 fitted with a chemiluminescence filter.

all cell lines = test: MTT cytotoxicity assay, across the cell lines; assay type: cell-based; details: all cell lines; MTT; read-out: IC50 against all cell lines
Description: as §1
(§5) The cytotoxicity of the compounds was assessed by means of the MTT assay (MTT=3-(4,5-dimethyl-2-thiazolyl)-2,5-diphenyl-2H-tetrazolium bromide). Typically, on day one, ˜1×10^3 cells were seeded into 96-well plates in 100 μL media per well. […] The optical density for each well at 550 nm was measured with a microplate reader.

HCT116 cells = test: MTT cytotoxicity assay, HCT116
Description: as §1, §2

[2] = system: A2780 ovarian cancer cells; test: PI-annexin-V dual staining apoptosis assay; assay type: cell-based; details: 10 μM for 48 hours
A549 cells [3] = test: JC-1 mitochondrial membrane potential assay; assay type: cell-based; details: cisplatin or Pt(IV)(α-TOS)(OEt) at 20 μM, 4 hours
Method: To investigate the effect of Pt(IV)(α-TOS)(OEt) on mitochondria, changes in the mitochondrial membrane potential were assessed by the JC-1 assay. JC-1 (5,5′,6,6′-tetrachloro-1,1′3,3′-tetraethylbenzimidazolylcarbocyanine iodide) is a positively charged lipophilic dye, which accumulates in the mitochondria of healthy cells as red-emitting aggregates. When the mitochondrial membrane is compromised, JC-1 de-aggregates into monomeric forms that emit green fluorescence. […] These findings were confirmed using flow cytometry. A large population of untreated and Pt(IV)(α-TOS)(OEt)-treated A549 cells were examined.
In order to monitor the cell cycle, flow cytometry studies were carried out. A549 cells were incubated with and without the test compounds for 24 and 48 h at 37° C. Cells were harvested from adherent cultures by trypsinization and combined with all detached cells from the incubation medium to assess total cell viability. Following centrifugation at 1000 rpm for 5 min, cells were washed with PBS and then fixed with 70% ethanol in PBS. Fixed cells were collected by centrifugation at 2500 rpm for 3 min, washed with PBS and centrifuged as before. Cellular pellets were re-suspended in 50 μg/mL propidium iodide (Sigma) in PBS for nucleic acids staining and treated with 100 μg/mL RNaseA (Sigma). DNA content was measured on a FACSCalibur-HTS flow cytometer (BD Biosciences) using laser excitation at 488 nm and 20,000 events per sample were acquired. Cell cycle profiles were analysed using the ModFit software. For the apoptosis experiments, the Annexin V-FITC Early Apoptosis Detection Kit (Cell Signaling Technology) was used. […] The samples were kept on ice prior to being read on the FACSCalibur-HTS flow cytometer (BD Biosciences) (20,000 events per sample were acquired). Cell populations were analysed using the FlowJo software (Tree Star). […] The cells were incubated for 30 min, harvested, and analysed by using the FACSCalibur-HTS flow cytometer (BD Biosciences) (20,000 events per sample were acquired). […] Cell populations were analysed using the FlowJo software (Tree Star).

in vitro = details: human
Description: as §1, §4

HeLa cells = test: MTT cytotoxicity assay, HeLa
Description: as §1, §5

[4] = system: A2780/CP70 cells (CisPt resistant); test: MTT cytotoxicity assay, A2780/CP70
Description: as §1, §5

[5] = system: A2780 ovarian carcinoma cells; test: MTT cytotoxicity assay, A2780
Description: as §1, §5

A549 cells [6] = test: MTT cytotoxicity assay, A549
Description: as §1, §5

T1 sequence (Q07817 whole entry): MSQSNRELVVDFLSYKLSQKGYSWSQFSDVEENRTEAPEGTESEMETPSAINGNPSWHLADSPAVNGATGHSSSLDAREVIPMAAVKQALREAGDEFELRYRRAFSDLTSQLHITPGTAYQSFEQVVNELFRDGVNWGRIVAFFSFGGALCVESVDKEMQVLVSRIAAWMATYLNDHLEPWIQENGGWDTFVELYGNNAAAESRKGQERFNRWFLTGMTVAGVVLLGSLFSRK

In the case of `CC(=O)[O][Pt]([NH2])([NH2])([Cl])([Cl])[O]C(C)=O` [Pt(IV)(OAc)2], the IC50 (MCF-7 cells) is reported as greater than 100 µM, the “Bcl-xL-Bax interaction (Bax associated to the Bcl-xL immunoprecipitate)” value (from here on “Bcl-xL-Bax interaction”) (Bcl-xL-Bax interactions) is reported as “less affected” and the IC50 (PC-3 cells) is reported as greater than 100 µM. The IC50 [1] was greater than 100 µM, the Bcl-xL expression (Bcl-xL) was “A similar trend was observed” and the IC50 (all cell lines) was greater than 100 µM. For the same molecule, the IC50 (HCT116 cells) was greater than 100 µM.
In the case of `N.N.[Cl][Pt][Cl]` [cisplatin, reference compound], the “Bcl-xL-Bax interaction” value (Bcl-xL-Bax interactions) is reported as “less affected”, the Bcl-xL expression (Bcl-xL) is reported as “A similar trend was observed” and the “cells displaying apoptotic properties” value [2] is reported as 10%.
For `N#CC(C#N)=NNc1cccc(Cl)c1` [CCCP, carbonyl cyanide m-chlorophenyl hydrazone, reference compound], the “JC-1 fluorescence (mitochondrial membrane disruption), microscopy” value (A549 cells [3]) was “increased green fluorescence and diminished red fluorescence”.
For `Cc1c(C)c2c(c(C)c1OC(=O)CCC(=O)[O][Pt]([NH2])([NH2])([Cl])([Cl])[O]C(=O)CCC(=O)Oc1c(C)c(C)c3c(c1C)CCC(C)(CCCC(C)CCCC(C)CCCC(C)C)O3)CCC(C)(CCCC(C)CCCC(C)CCCC(C)C)O2` (stereo not drawn) [Pt(IV)(α-TOS)2], the “Bcl-xL-Bax interaction” value (Bcl-xL-Bax interactions) was “less affected”, the IC50 at 48 h (in vitro) was 80.5 µM and the Bcl-xL expression (Bcl-xL) was “A similar trend was observed”.
In the case of `Cc1c(C)c2c(c(C)c1OC(=O)CCC(=O)O)CC[C@@](C)(CCC[C@H](C)CCC[C@H](C)CCCC(C)C)O2` [α-TOS, α-tocopherol succinate, reference compound], the IC50 (MCF-7 cells) is reported as 40.5 µM, the IC50 (HeLa cells) is reported as 25.1 µM and the “Bcl-xL-Bax interaction” value (Bcl-xL-Bax interactions) is reported as “markedly lower than the untreated control”. The IC50 (PC-3 cells) was 37 µM, the IC50 [1] was 28.5 µM and the IC50 [4] was 21.7 µM. The IC50 [5] was 13.8 µM, the IC50 (A549 cells [6]) was 26.9 µM and the IC50 (HCT116 cells) was 31.2 µM.
